Results published in patent US6914045B2, “Glycopeptide antibiotics” (Wyeth Holdings Corporation, priority 2001, dated 2005).
≈ marks a conversion by molar mass, not a printed value.

Assays:
[1] = anatomic pathology (histopathology of heart and kidney) in mice; assay type: in vivo; conditions: CD-1 mice, 20 mg/kg intravenously daily for 9 days, necropsy day 10, microscopic histopathology
Description: Samples of tissues from necropsied mice were formalin-fixed, paraffin-embedded, sectioned, stained with hematoxylin and eosin, and examined microscopically. Histopathologic findings were recorded. These findings were subjectively graded on a scale corresponding to slight, mild, moderate, marked and severe as compared to untreated controls.

[2] = system: Streptococcus sp.; experiment: in vitro antibacterial evaluation, MIC by broth dilution; assay type: cell-based; conditions: broth dilution, 18 hours at 35° C.
Outline: (§1)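 Inoculum 5×10^5 CFU/mL; concentrations 64 to 0.06 μg/mL; MIC defined as lowest inhibitory level. Conducted by broth dilution under NCCLS guidelines.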

[3] = system: Escherichia coli; experiment: as above; assay type: cell-based; conditions: 18 hours at 35° C.
Outline: as §1

[4] = system: Staphylococcus sp.; experiment: as above; assay type: cell-based; conditions: broth dilution, 18 hours at 35° C.
Outline: as §1

[5] = system: Enterococcus sp.; experiment: as above; assay type: cell-based; conditions: broth dilution, 18 hours at 35° C.
Outline: as §1

[6] = clinical pathology (serum clinical chemistry) in mice; assay type: in vivo; conditions: CD-1 mice, 20 mg/kg intravenously daily for 9 days, sera day 10
Description: 20-day-old CD-1 mice were divided into a vehicle control group (5 mice) and a treatment group (5 mice). Samples of glycopeptide antibiotics were administered at 20 mg/kg intravenously daily for 9 days.

In the case of `CC(c1ccccc1)C1NC(=O)CNC(=O)C(CO)NC(=O)C(C(O)C2CNC(=N)N2C2OC(CO)C(O)C(O)C2O)NC(=O)C(C(O)C2CNC(=N)N2)NC(=O)C(Cc2ccc(OC3OC(CO)C(OC4OC5COC(Cc6ccccc6)OC5C(O)C4O)C(O)C3O)cc2)NC1=O` (stereo not drawn) [Example 102, Cyclo[glycyl-β-methylphenylalanyl-O-[4-O-(4,6-O-phenethylidenehexopyranosyl)-hexopyranosyl]tyrosyl-3-(2-iminoimidazolidin-4-yl)seryl-3-(3-hexopranosyl-2-iminoimidazolidin-4-yl)serylseryl]], the “Anatomical Pathology (Day 10), Heart” value [1] is reported as “+++”, the “Anatomical Pathology (Day 10), Kidney” value [1] is reported as “+++” and the “MIC Streptococcus agalactiae (GC 4564)” value ([2]; Streptococcus agalactiae (GC 4564)) is reported as under 0.12 to 0.25 µg/mL. For the same molecule, the “MIC Streptococcus pneumoniae (ATCC 6301)” value ([2]; Streptococcus pneumoniae (ATCC 6301)) was under 0.06 µg/mL, the “MIC Streptococcus pneumoniae (GC 1894)” value ([2]; Streptococcus pneumoniae (GC 1894)) was under 0.06 µg/mL and the “MIC Streptococcus pyogenes (GC 4563)” value ([2]; Streptococcus pyogenes (GC 4563)) was under 0.12 to 0.25 µg/mL. The “MIC Streptococcus pneumoniae (ATCC 6301)” value ([2]; strain ATCC 6301) was under 0.06 µg/mL, the “MIC Streptococcus pneumoniae (GC 1894)” value ([2]; strain GC 1894) was under 0.06 µg/mL and the “MIC Streptococcus pyogenes (GC 4563)” value ([2]; strain GC 4563) was under 0.12 to 0.25 µg/mL. The “MIC Streptococcus agalactiae (GC 4564)” value ([2]; strain GC 4564) was under 0.12 to 0.25 µg/mL, the “MIC Escherichia coli (ATCC 25922)” value ([3]; strain ATCC 25922) was 16 to 64 µg/mL and the “MIC Escherichia coli (GC 4559)” value ([3]; strain GC 4559) was 16 to 32 µg/mL. For the same molecule, the “MIC Escherichia coli (GC 4560)” value ([3]; strain GC 4560) was 0.5 to 1 µg/mL, the “MIC Coagulase Negative Staphylococcus (GC 4547)” value [4] was 1 µg/mL (≈ 0.716 µM) and the “MIC Coagulase Negative Staphylococcus (GC 4548)” value [4] was 0.5 to 1 µg/mL. For the same molecule, the “MIC Coagulase Negative Staphylococcus (GC 4549)” value [4] was 0.5 to 1 µg/mL, the “MIC Coagulase Negative Staphylococcus (GC 4551)” value [4] was 1 to 2 µg/mL and the “MIC Coagulase Negative Staphylococcus (GC 6257)” value [4] was 0.5 µg/mL (≈ 0.358 µM). For the same molecule, the “MIC Staphylococcus aureus (ATCC 29213)” value [4] was 1 to 2 µg/mL, the “MIC Staphylococcus aureus (GC 1131)” value [4] was 2 µg/mL (≈ 1.43 µM) and the “MIC Staphylococcus aureus (GC 3051)” value [4] was 1 µg/mL (≈ 0.716 µM). For the same molecule, the “MIC Staphylococcus aureus (GC 3053)” value [4] was 1 to 2 µg/mL, the “MIC Staphylococcus aureus (GC 4541)” value [4] was 1 to 2 µg/mL and the “MIC Staphylococcus aureus (GC 4542)” value [4] was 0.5 to 1 µg/mL. For the same molecule, the “MIC Staphylococcus aureus (GC 4544)” value [4] was 1 to 2 µg/mL, the “MIC Staphylococcus aureus (GC 4545)” value [4] was 0.5 to 1 µg/mL and the “MIC Staphylococcus aureus-SMITH (GC 4543)” value [4] was 0.5 to 1 µg/mL. The “MIC Staphylococcus haemolyticus (GC 4546)” value [4] was 0.5 to 1 µg/mL, the “MIC Staphylococcus haemolyticus (GC 4546)” value ([4]; strain GC 4546) was 0.5 to 1 µg/mL and the “MIC Coagulase Negative Staphylococcus (GC 4547)” value ([4]; strain GC 4547) was 1 µg/mL (≈ 0.716 µM). The “MIC Coagulase Negative Staphylococcus (GC 4548)” value ([4]; strain GC 4548) was 0.5 to 1 µg/mL, the “MIC Coagulase Negative Staphylococcus (GC 4549)” value ([4]; strain GC 4549) was 0.5 to 1 µg/mL and the “MIC Coagulase Negative Staphylococcus (GC 4551)” value ([4]; strain GC 4551) was 1 to 2 µg/mL. The “MIC Coagulase Negative Staphylococcus (GC 6257)” value ([4]; strain GC 6257) was 0.5 µg/mL (≈ 0.358 µM), the “MIC Staphylococcus aureus-SMITH (GC 4543)” value ([4]; strain SMITH GC 4543) was 0.5 to 1 µg/mL and the “MIC Staphylococcus aureus (ATCC 29213)” value ([4]; strain ATCC 29213) was 1 to 2 µg/mL. The “MIC Staphylococcus aureus (GC 1131)” value ([4]; strain GC 1131) was 2 µg/mL (≈ 1.43 µM), the “MIC Staphylococcus aureus (GC 3051)” value ([4]; strain GC 3051) was 1 µg/mL (≈ 0.716 µM) and the “MIC Staphylococcus aureus (GC 3053)” value ([4]; strain GC 3053) was 1 to 2 µg/mL. For the same molecule, the “MIC Staphylococcus aureus (GC 4541)” value ([4]; strain GC 4541) was 1 to 2 µg/mL, the “MIC Staphylococcus aureus (GC 4542)” value ([4]; strain GC 4542) was 0.5 to 1 µg/mL and the “MIC Staphylococcus aureus (GC 4544)” value ([4]; strain GC 4544) was 1 to 2 µg/mL. The “MIC Staphylococcus aureus (GC 4545)” value ([4]; strain GC 4545) was 0.5 to 1 µg/mL, the “MIC Enterococcus avium (GC 4558)” value ([5]; Enterococcus avium (GC 4558)) was 2 to 4 µg/mL and the “MIC Enterococcus faecalis (ATCC 29212)” value ([5]; Enterococcus faecalis (ATCC 29212)) was 2 to 4 µg/mL. For the same molecule, the “MIC Enterococcus faecalis (GC 2242)” value ([5]; Enterococcus faecalis (GC 2242)) was 2 to 4 µg/mL, the “MIC Enterococcus faecalis (GC 2691)” value ([5]; Enterococcus faecalis (GC 2691)) was 2 to 4 µg/mL and the “MIC Enterococcus faecalis (GC 3059)” value ([5]; Enterococcus faecalis (GC 3059)) was 2 to 4 µg/mL. The “MIC Enterococcus faecalis (GC 4552)” value ([5]; Enterococcus faecalis (GC 4552)) was 2 to 4 µg/mL, the “MIC Enterococcus faecalis (GC 4553)” value ([5]; Enterococcus faecalis (GC 4553)) was 2 to 4 µg/mL and the “MIC Enterococcus faecalis (GC 4554)” value ([5]; Enterococcus faecalis (GC 4554)) was 2 to 4 µg/mL. The “MIC Enterococcus faecalis (GC 6189)” value ([5]; Enterococcus faecalis (GC 6189)) was 2 to 4 µg/mL, the “MIC Enterococcus faecium (GC 2243)” value ([5]; Enterococcus faecium (GC 2243)) was 2 to 4 µg/mL and the “MIC Enterococcus faecium (GC 4556)” value ([5]; Enterococcus faecium (GC 4556)) was 2 to 4 µg/mL. The “MIC Enterococcus faecium (GC 4557)” value ([5]; Enterococcus faecium (GC 4557)) was 1 to 2 µg/mL, the “MIC Enterococcus faecalis (ATCC 29212)” value ([5]; strain ATCC 29212) was 2 to 4 µg/mL and the “MIC Enterococcus faecalis (GC 2242)” value ([5]; strain GC 2242) was 2 to 4 µg/mL. For the same molecule, the “MIC Enterococcus faecium (GC 2243)” value ([5]; strain GC 2243) was 2 to 4 µg/mL, the “MIC Enterococcus faecalis (GC 2691)” value ([5]; strain GC 2691) was 2 to 4 µg/mL and the “MIC Enterococcus faecalis (GC 3059)” value ([5]; strain GC 3059) was 2 to 4 µg/mL. The “MIC Enterococcus faecalis (GC 4552)” value ([5]; strain GC 4552) was 2 to 4 µg/mL, the “MIC Enterococcus faecalis (GC 4553)” value ([5]; strain GC 4553) was 2 to 4 µg/mL and the “MIC Enterococcus faecalis (GC 4554)” value ([5]; strain GC 4554) was 2 to 4 µg/mL. The “MIC Enterococcus faecium (GC 4556)” value ([5]; strain GC 4556) was 2 to 4 µg/mL, the “MIC Enterococcus faecium (GC 4557)” value ([5]; strain GC 4557) was 1 to 2 µg/mL and the “MIC Enterococcus avium (GC 4558)” value ([5]; strain GC 4558) was 2 to 4 µg/mL. The “MIC Enterococcus faecalis (GC 6189)” value ([5]; strain GC 6189) was 2 to 4 µg/mL, the “Clinical Chemistry (Day 10) % of Control, ALT” value [6] was “+672%” and the “Clinical Chemistry (Day 10) % of Control, AST” value [6] was “+340%”. For the same molecule, the “Clinical Chemistry (Day 10) % of Control, BUN” value [6] was “+249%” and the “Clinical Chemistry (Day 10) % of Control, Creatinine” value [6] was “+100%”.
